Data on 3 molecules can be found in PMC4739419, “Mutations in the nucleotide binding and hydrolysis domains of Helicobacter pylori MutS2 lead to altered biochemical activities and inactivation of its in vivo function” (BMC Microbiology, 2016).

One data set has as its target T1, ssDNA-HpMutS2 complex (Helicobacter pylori, UniProt O25338).
T1 construct: (A) HpMutS2 (1-762): Mol. wt; (kDa): 87.8; His6 (C); made in house; host or cells: E. coli Rosetta (DE3) pLysS
T1 sequence (O25338 1-762): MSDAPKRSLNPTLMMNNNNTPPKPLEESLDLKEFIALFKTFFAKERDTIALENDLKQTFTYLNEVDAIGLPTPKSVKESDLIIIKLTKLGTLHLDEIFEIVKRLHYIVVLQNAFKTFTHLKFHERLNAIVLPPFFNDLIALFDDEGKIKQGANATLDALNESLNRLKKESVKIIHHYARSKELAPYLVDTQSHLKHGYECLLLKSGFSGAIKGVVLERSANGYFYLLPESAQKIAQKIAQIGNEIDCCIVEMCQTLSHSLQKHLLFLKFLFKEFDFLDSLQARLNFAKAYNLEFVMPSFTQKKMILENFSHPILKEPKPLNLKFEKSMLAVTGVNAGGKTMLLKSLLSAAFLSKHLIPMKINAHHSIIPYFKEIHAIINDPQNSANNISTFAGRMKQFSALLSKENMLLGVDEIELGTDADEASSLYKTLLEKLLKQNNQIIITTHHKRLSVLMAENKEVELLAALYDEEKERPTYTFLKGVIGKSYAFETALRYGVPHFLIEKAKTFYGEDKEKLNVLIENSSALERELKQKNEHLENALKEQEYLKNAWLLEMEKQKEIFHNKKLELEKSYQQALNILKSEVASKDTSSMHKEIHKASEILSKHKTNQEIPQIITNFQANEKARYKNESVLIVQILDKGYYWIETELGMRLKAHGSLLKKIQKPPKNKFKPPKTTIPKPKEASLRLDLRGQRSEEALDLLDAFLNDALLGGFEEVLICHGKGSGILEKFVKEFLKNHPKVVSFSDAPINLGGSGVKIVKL
Put plainly: Chase experiment on preformed nucleoprotein complex. Type of data set: binding. Particulars: highest concentration of ATP used (0.25–5 mM).

The target in data set [1] is T2, HpMutS2 (Helicobacter pylori, UniProt O25338).
T2 construct: (A) HpMutS2 (1-762): Mol. wt; (kDa): 87.8; His6 (C); made in house; host or cells: E. coli Rosetta (DE3) pLysS
Briefly: Tryptophan fluorescence-quenching nucleotide binding assay. Particulars: for Kd: no divalent metal ions, protein 1 μM, 25 °C, read-out: Kd (dissociation constant). The procedure:
(§1) Next, the ATP hydrolysing abilities of HpMutS2-G338R and HpMutS2-E413A were tested and compared to that of wild-type HpMutS2. […] Therefore, to determine the nucleotide binding efficiencies of HpMutS2, HpMutS2-G338R, and HpMutS2-E413A, intrinsic fluorescence properties of these proteins were exploited. HpMutS2 has two tryptophan residues at positions 551 and 644. A fluorescence-quenching assay was used to determine the ATP and ADP binding affinities of HpMutS2 and its mutants. Quenching of the Trp fluorescence was recorded upon titration with ATP and ADP in absence of any divalent metal ions. Saturation isotherms generated from the changes in the fluorescence emission spectra of HpMutS2, HpMutS2-G338R, and HpMutS2-E413A were used to calculate the dissociation constants for ATP and ADP (Figs. 2a, b and c respectively).
(§2) Fig. 2 Nucleotide binding affinities of a HpMutS2 b HpMutS2-G338R and c HpMutS2-E413A. Tryptophan fluorescence assays described in the Methods section were used to determine the nucleotide binding affinities of proteins.
(§3) Fluorescence spectroscopy analysis of HpMutS2 was carried out based on the intrinsic fluorescent signal of tryptophan. The proteins were dialyzed in buffer B (50 mM Tris pH 8.0 and 100 mM NaCl) for 4–6 h with at least two changes of the buffer. Fluorescence intensities were measured on a Shimadzu, RF 5000 spectrofluorimeter using a 1-cm stirred quartz cuvette at 25 °C. The emission spectra were recorded over a wavelength of 300–400 nm with an excitation wavelength of 280 nm. To measure the dissociation constants for ATP and ADP, small aliquots of cofactor were added to proteins (1 μM), and spectra were recorded. Each spectra recorded was an average of three scans. The maximum fluorescence intensities observed at around 340 nm were selected for calculating the difference in intrinsic fluorescence of protein alone and in the presence of ligand. Control titrations were conducted and all the fluorescence emission spectra were corrected by subtracting control spectra. The dissociation constants were calculated graphically using a plot of ΔF/ΔFmax versus ligand concentration. ΔF is the magnitude of the difference between the observed fluorescence intensity at a given concentration of ligand and the fluorescence intensity in the absence of ligand and ΔFmax is the difference at saturating concentration of ligand.

The target in data set [2] is T3, HpMutS2-E413A (Helicobacter pylori, UniProt O25338, E413A).
T3 construct: (A) HpMutS2-E413A (1-762): Mol. wt; (kDa): 87.7; His6 (C); made in house; host or cells: E. coli Rosetta (DE3) pLysS
T3 sequence (O25338 1-762 E413A): T1 sequence (O25338 1-762) with E413A
The description is as above. Particulars: no divalent metal ions, protein 1 μM, 25 °C; read-out: Kd (dissociation constant). The procedure: as §1, §2, §3

Data set [3] addresses T4, HpMutS2-G338R (Helicobacter pylori, UniProt O25338, G338R).
T4 construct: (A) HpMutS2-G338R (1-762): Mol. wt; (kDa): 87.9; His6 (C); made in house; host or cells: E. coli Rosetta (DE3) pLysS
T4 sequence (O25338 1-762 G338R): T1 sequence (O25338 1-762) with G338R
The description is as above. Particulars: no divalent metal ions, protein 1 μM, 25 °C; read-out: Kd (dissociation constant). The procedure: as §1, §2, §3

The target of data set [4] is T5, HpMutS2 (Helicobacter pylori 26695, UniProt O25338 1-762).
T5 sequence: T1 sequence (O25338 1-762)
Briefly: EMSA; 1 mM ATPgS; EMSA: 0.16 nM DNA, buffer A (50 mM Tris pH 8.0, 50 mM NaCl, 1 mM DTT per Fig. S3 legend) with 0.1 ug/ul BSA, NaCl 110 mM, no divalent metal stated, 30 min on ice, 8% native PAGE at 4 C; nucleotides 1 mM; Hill-slope fit. Particulars: protein: recombinant; tags: C-terminal His6; chain copies: 4; label: 5'-32P. In general terms: Mobility shift assays separate free from complexed probe on a gel.

Data set [5] has as its target HpMutS2-E413A (Helicobacter pylori 26695, UniProt O25338 1-762, E413A). Put plainly: EMSA; no nucleotide; no plateau, value not accurate; EMSA: 0.16 nM DNA, buffer A (50 mM Tris pH 8.0, 50 mM NaCl, 1 mM DTT per Fig. S3 legend) with 0.1 ug/ul BSA, NaCl 110 mM, no divalent metal stated, 30 min on ice, 8% native PAGE at 4 C; nucleotides 1 mM; Hill-slope fit. Particulars: protein: recombinant; tags: C-terminal His6; chain copies: 4; label: 5'-32P.

Data set [6] concerns the target T5, HpMutS2. Put plainly: EMSA; 1 mM ADP; EMSA: 0.16 nM DNA, buffer A (50 mM Tris pH 8.0, 50 mM NaCl, 1 mM DTT per Fig. S3 legend) with 0.1 ug/ul BSA, NaCl 110 mM, no divalent metal stated, 30 min on ice, 8% native PAGE at 4 C; nucleotides 1 mM; Hill-slope fit. Particulars: protein: recombinant; tags: C-terminal His6; chain copies: 4; label: 5'-32P.
For data set [7], the target named is T6, HpMutS2-G338R (Helicobacter pylori 26695, UniProt O25338 1-762, G338R). Described as above. Particulars: protein: recombinant; tags: C-terminal His6; chain copies: 4; label: 5'-32P.
Data set [8] concerns the target T6, HpMutS2-G338R. Put plainly: EMSA; 1 mM ATP; EMSA: 0.16 nM DNA, buffer A (50 mM Tris pH 8.0, 50 mM NaCl, 1 mM DTT per Fig. S3 legend) with 0.1 ug/ul BSA, NaCl 110 mM, no divalent metal stated, 30 min on ice, 8% native PAGE at 4 C; nucleotides 1 mM; Hill-slope fit. Particulars: protein: recombinant; tags: C-terminal His6; chain copies: 4; label: 5'-32P.
Data set [9] addresses T5, HpMutS2. Put plainly: EMSA; no nucleotide; EMSA: 0.16 nM DNA, buffer A (50 mM Tris pH 8.0, 50 mM NaCl, 1 mM DTT per Fig. S3 legend) with 0.1 ug/ul BSA, NaCl 110 mM, no divalent metal stated, 30 min on ice, 8% native PAGE at 4 C; nucleotides 1 mM; Hill-slope fit. Particulars: protein: recombinant; tags: C-terminal His6; chain copies: 4; label: 5'-32P.
In data set [10] the target is T6, HpMutS2-G338R. The data set is described as above. Particulars: protein: recombinant; tags: C-terminal His6; chain copies: 4; label: 5'-32P.

Substitutions are numbered along the chain they refer to.

On to `Nc1ncnc2c1ncn2[C@@H]1O[C@H](COP(=O)(O)OP(=O)(O)OP(=O)(O)O)[C@@H](O)[C@H]1O` [ATP], for which the “dissociation of ssDNA from preformed complex” value on ssDNA-HpMutS2 complex is ~ 20%. In addition, the Kd – broadly, a measure of binding affinity in units of concentration – at HpMutS2 [1] amounted to 167000 ± 24300 nM; at HpMutS2-E413A [2], 220000 ± 54200 nM; at HpMutS2-G338R [3], 409000 ± 70400 nM. For the same molecule, the “Kd value, fold less than Km value” at HpMutS2 [1] (wild-type HpMutS2) is given as ~ 2.4 fold.

`Nc1ncnc2c1ncn2[C@@H]1O[C@H](COP(=O)(O)OP(=O)(O)O)[C@@H](O)[C@H]1O` [ADP]: the values for the Kd on HpMutS2 [1], at HpMutS2-E413A [2] and at HpMutS2-G338R [3] were 149000 ± 31800 nM, 239000 ± 82900 nM and 318000 ± 68500 nM, respectively.

B1: ssDNA 63-mer (ODN4) (ssDNA)
DNA: ATCGATAGTCGGATCCTCCAGACAGCTCCATGTAGCAAGGCACTGGTAGAATTCGGCAGCGTC
With B1, the Kd is 11.4 ± 0.19 nM in the data set with HpMutS2 [4]; around 73.8 nM with HpMutS2-E413A [5]; 17.3 ± 2.89 nM with HpMutS2 [6]; 23.9 ± 2.91 nM with HpMutS2-G338R [7]; 30.7 ± 3.43 nM in the data set with HpMutS2-G338R [8]; 21.5 ± 2.28 nM in the data set with HpMutS2 [9]. For the same molecule, the Kd in the data set with HpMutS2-G338R [10] worked out at 32.4 ± 3.32 nM.
